Where two headings read alike, the source gives them in different places.
Tests used:
[1] = tested on: T. gondii RH strain (RH-Tub-eYFP) tachyzoites; experiment: microbe, parasite or virus in culture; type: cell-based, Toxoplasma gondii; details: 72 h; for percent parasite growth at 2 µg/mL: Toxoplasma gondii
[2] = tested on: P. falciparum 3D7 parasites; experiment: P. falciparum growth inhibition assay, 2-cycle (120 h treatment), delayed-death screen and dose-response; type: cell-based, Plasmodium falciparum; details: for activity at 2 µg/mL: Plasmodium falciparum
[3] = tested on: P. falciparum 3D7 parasites; experiment: P. falciparum growth inhibition assay, 1-cycle (72 h treatment), SYBR DNA staining (library screen at 2 μg/mL and dose-response); type: cell-based, Plasmodium falciparum; details: for activity at 2 µg/mL: Plasmodium falciparum
[4] = library screen at 2 μg/mL, % growth, replicate 1
[5] = library screen at 2 μg/mL, % growth, replicate 2
[6] = library screen at 2 μg/mL, 120 h, % growth, replicate 1
[7] = library screen at 2 μg/mL, 120 h, % growth, replicate 2
[8] = library screen at 2 μg/mL, 72 h, % growth, replicate 1
[9] = library screen at 2 μg/mL, 72 h, % growth, replicate 2
[10] = T. gondii, screen at 2 μg/mL, replicate 1
[11] = T. gondii, screen at 2 μg/mL, replicate 2
[12] = P. falciparum, 120 h, screen at 2 μg/mL, replicate 1
[13] = P. falciparum, 120 h, screen at 2 μg/mL, replicate 2
[14] = P. falciparum, 72 h, screen at 2 μg/mL, replicate 1
[15] = P. falciparum, 72 h, screen at 2 μg/mL, replicate 2
[16] = T. gondii, 2 μg/mL, values are growth (% of control)

Structure (SMILES) | Tg_72h_%Growth_Rep1 [1, 4] | Tg_72h_%Growth_Rep2 [1, 5] | Pf_120h_%Growth_Rep1 [2, 6] | Pf_120h_%Growth_Rep2 [2, 7] | Pf_72h_%Growth_Rep1 [3, 8] | Pf_72h_%Growth_Rep2 [3, 9] | Tg_72h_%Growth_Rep1 [1, 10] | Tg_72h_%Growth_Rep2 [1, 11] | Pf_120h_%Growth_Rep1 [2, 12] | Pf_120h_%Growth_Rep2 [2, 13] | Pf_72h_%Growth_Rep1 [3, 14] | Pf_72h_%Growth_Rep2 [3, 15] | further results
CC1=CC[C@H]2C(C)(C)CCC[C@]2(C)[C@H]1CO [Drimenol] | 153.93% | 98.02% | 92.79% | 93.83% | 88.25% | 89.37% | – | – | – | – | – | – | –
COc1c(C)c(OC(=O)c2c(C)c(C)c(OC(=O)c3c(C)cc(O)c(C)c3O)c(C)c2OC)c(C)c(C)c1C(=O)O [Thielavin B] | – | – | – | – | – | – | 86.62% | 101.22% | 38.21% | 6.65% | 13.97% | 7.85% | activity in the screen against P. falciparum ([3]; 2 μg/mL, 72 h, active = ≥80 % growth inhibition): active
CCN(CC)CCS(=O)(=O)[C@@H]1CCN2C(=O)c3coc(n3)CC(=O)C[C@H](O)/C=C(C)/C=C/CNC(=O)/C=C/[C@@H](C)[C@@H](C(C)C)OC(=O)[C@@H]12.CS(=O)(=O)O [Dalfopristin mesylate, reference compound] | – | – | – | – | – | – | 40.17% | 68.18% | 1.37% | 9.82% | 55.22% | 35.94% | 2) Growth (%) at 120 h ([2]; P. falciparum, 2 μg/mL, 120 h): 5.60%; 3) Fold change (72 h/120 h) ([2]; P. falciparum, growth at 72 h / growth at 120 h, 2 μg/mL): 8.1; 1) Growth (%) at 72 h ([3]; P. falciparum, 2 μg/mL, 72 h): 45.58%
CC[C@H]1CCC[C@H](O)[C@@H](C)C(=O)C2=C[C@@H]3[C@@H](C=C[C@@H]4C[C@@H](O[C@@H]5O[C@@H](C)[C@H](OC)[C@@H](OC)[C@H]5OC)C[C@@H]34)[C@@H]2CC(=O)O1 [Spinosyn A pseudoaglycone] | – | – | – | – | – | – | – | – | – | – | – | – | Mean ([1]; T. gondii, 2 μg/mL, mean of both replicates, growth (% of control)): 30.09; Replicate 1 [1, 16]: 50.49; Replicate 2 [1, 16]: 9.69; Tg_72h_%Growth_Rep1 ([1]; T. gondii, parasite screen 2 μg/mL, % growth, replicate 1): 50.49%; Tg_72h_%Growth_Rep2 ([1]; T. gondii, parasite screen 2 μg/mL, % growth, replicate 2): 9.69%; Pf_120h_%Growth_Rep1 ([2]; P. falciparum, 120 h, parasite screen 2 μg/mL, % growth, replicate 1): 17.26%; Pf_120h_%Growth_Rep2 ([2]; P. falciparum, 120 h, parasite screen 2 μg/mL, % growth, replicate 2): 10.80%; IC50 ([3]; 3D7, 72 h treatment, mean ± S.D., n ≥ 3, read-out: IC50 (μM), P. falciparum): > 1 µM; Pf_72h_%Growth_Rep1 ([3]; P. falciparum, 72 h, parasite screen 2 μg/mL, % growth, replicate 1): 8.11%; Pf_72h_%Growth_Rep2 ([3]; P. falciparum, 72 h, parasite screen 2 μg/mL, % growth, replicate 2): -6.27%
C[C@@H]1C=C2C(=O)O[C@@H]3CC[C@H](C1)[C@]23O [Galiellalactone] | 132.28% | 99.14% | 91.95% | 97.41% | 88.40% | 106.75% | – | – | – | – | – | – | –
COC1/C=C\C=C(/C)C(=O)NC2=CC(=O)C(NCCN(C)C)=C(C[C@@H](C)C[C@H](OC)[C@H](O)[C@@H](C)/C=C(\C)[C@@H]1OC(N)=O)C2=O (some centres unmarked) | -1.12% | -0.16% | 10.33% | 2.04% | 11.89% | -0.93% | – | – | – | – | – | – | –
CCCCCCCCCC(=O)N[C@H]1[C@H](Oc2c3cc4cc2Oc2ccc(cc2Cl)[C@@H](O[C@@H]2O[C@H](CO)[C@@H](O)[C@H](O)[C@H]2NC(C)=O)[C@@H]2NC(=O)[C@H](NC(=O)[C@@H]4NC(=O)[C@H]4NC(=O)[C@H](Cc5ccc(c(Cl)c5)O3)NC(=O)[C@H](N)c3ccc(O)c(c3)Oc3cc(O)cc4c3)c3ccc(O)c(c3)-c3c(O[C@H]4O[C@H](CO)[C@@H](O)[C@H](O)[C@@H]4O)cc(O)cc3[C@@H](C(=O)O)NC2=O)O[C@H](CO)[C@@H](O)[C@@H]1O [Teicoplanin A2-3] | – | – | – | – | – | – | – | – | – | – | – | – | percent parasite growth at 2 µg/mL ([1]; T. gondii, parasite screen 2 μg/mL, % growth, replicate 1, read-out: Tg_72h_%Growth_Rep1): 112%; percent parasite growth at 2 µg/mL ([1]; T. gondii, parasite screen 2 μg/mL, % growth, replicate 2, read-out: Tg_72h_%Growth_Rep2): 84.1%; activity at 2 µg/mL ([2]; 3D7, 120 h, P. falciparum, 120 h, parasite screen 2 μg/mL, % growth, replicate 1, read-out: Pf_120h_%Growth_Rep1): 110%; activity at 2 µg/mL ([2]; 3D7, 120 h, P. falciparum, 120 h, parasite screen 2 μg/mL, % growth, replicate 2, read-out: Pf_120h_%Growth_Rep2): 97%; activity at 2 µg/mL ([3]; 3D7, 72 h, P. falciparum, 72 h, parasite screen 2 μg/mL, % growth, replicate 1, read-out: Pf_72h_%Growth_Rep1): 88.9%; activity at 2 µg/mL ([3]; 3D7, 72 h, P. falciparum, 72 h, parasite screen 2 μg/mL, % growth, replicate 2, read-out: Pf_72h_%Growth_Rep2): 128%
O=C(O)CCC(=O)OC[C@@H](NC(=O)C(Cl)Cl)[C@H](O)c1ccc([N+](=O)[O-])cc1 [Chloramphenicol succinate] | – | – | – | – | – | – | – | – | – | – | – | – | percent parasite growth at 2 µg/mL ([1]; read-out: Tg_72h_%Growth_Rep1): 79.4%; percent parasite growth at 2 µg/mL ([1]; read-out: Tg_72h_%Growth_Rep2): 97.4%; activity at 2 µg/mL ([2]; 3D7, P. falciparum, 120 h, screen at 2 μg/mL, replicate 1, read-out: Pf_120h_%Growth_Rep1): 150%; activity at 2 µg/mL ([2]; 3D7, P. falciparum, 120 h, screen at 2 μg/mL, replicate 2, read-out: Pf_120h_%Growth_Rep2): 95.2%; activity at 2 µg/mL ([3]; 3D7, P. falciparum, 72 h, screen at 2 μg/mL, replicate 1, read-out: Pf_72h_%Growth_Rep1): 111%; activity at 2 µg/mL ([3]; 3D7, P. falciparum, 72 h, screen at 2 μg/mL, replicate 2, read-out: Pf_72h_%Growth_Rep2): 86.6%
CC(C)=CC(=O)C[C@H](C)c1ccc(C)cc1 [Turmerone] | – | – | – | – | – | – | 108.84% | 94.24% | 78.99% | 84.67% | 81.95% | 115.94% | –
